Test results taken from article PMC8037503, “Methiothepin Increases Chemotherapy Efficacy against Resistant Melanoma Cells” (Molecules, 2021).

Target: T1, Ptch1 (Homo sapiens, UniProt Q13635)
T1 construct: human Ptch1 with C-terminal His-tag, DDM-solubilized from yeast membranes
T1 sequence (Q13635 1-1447): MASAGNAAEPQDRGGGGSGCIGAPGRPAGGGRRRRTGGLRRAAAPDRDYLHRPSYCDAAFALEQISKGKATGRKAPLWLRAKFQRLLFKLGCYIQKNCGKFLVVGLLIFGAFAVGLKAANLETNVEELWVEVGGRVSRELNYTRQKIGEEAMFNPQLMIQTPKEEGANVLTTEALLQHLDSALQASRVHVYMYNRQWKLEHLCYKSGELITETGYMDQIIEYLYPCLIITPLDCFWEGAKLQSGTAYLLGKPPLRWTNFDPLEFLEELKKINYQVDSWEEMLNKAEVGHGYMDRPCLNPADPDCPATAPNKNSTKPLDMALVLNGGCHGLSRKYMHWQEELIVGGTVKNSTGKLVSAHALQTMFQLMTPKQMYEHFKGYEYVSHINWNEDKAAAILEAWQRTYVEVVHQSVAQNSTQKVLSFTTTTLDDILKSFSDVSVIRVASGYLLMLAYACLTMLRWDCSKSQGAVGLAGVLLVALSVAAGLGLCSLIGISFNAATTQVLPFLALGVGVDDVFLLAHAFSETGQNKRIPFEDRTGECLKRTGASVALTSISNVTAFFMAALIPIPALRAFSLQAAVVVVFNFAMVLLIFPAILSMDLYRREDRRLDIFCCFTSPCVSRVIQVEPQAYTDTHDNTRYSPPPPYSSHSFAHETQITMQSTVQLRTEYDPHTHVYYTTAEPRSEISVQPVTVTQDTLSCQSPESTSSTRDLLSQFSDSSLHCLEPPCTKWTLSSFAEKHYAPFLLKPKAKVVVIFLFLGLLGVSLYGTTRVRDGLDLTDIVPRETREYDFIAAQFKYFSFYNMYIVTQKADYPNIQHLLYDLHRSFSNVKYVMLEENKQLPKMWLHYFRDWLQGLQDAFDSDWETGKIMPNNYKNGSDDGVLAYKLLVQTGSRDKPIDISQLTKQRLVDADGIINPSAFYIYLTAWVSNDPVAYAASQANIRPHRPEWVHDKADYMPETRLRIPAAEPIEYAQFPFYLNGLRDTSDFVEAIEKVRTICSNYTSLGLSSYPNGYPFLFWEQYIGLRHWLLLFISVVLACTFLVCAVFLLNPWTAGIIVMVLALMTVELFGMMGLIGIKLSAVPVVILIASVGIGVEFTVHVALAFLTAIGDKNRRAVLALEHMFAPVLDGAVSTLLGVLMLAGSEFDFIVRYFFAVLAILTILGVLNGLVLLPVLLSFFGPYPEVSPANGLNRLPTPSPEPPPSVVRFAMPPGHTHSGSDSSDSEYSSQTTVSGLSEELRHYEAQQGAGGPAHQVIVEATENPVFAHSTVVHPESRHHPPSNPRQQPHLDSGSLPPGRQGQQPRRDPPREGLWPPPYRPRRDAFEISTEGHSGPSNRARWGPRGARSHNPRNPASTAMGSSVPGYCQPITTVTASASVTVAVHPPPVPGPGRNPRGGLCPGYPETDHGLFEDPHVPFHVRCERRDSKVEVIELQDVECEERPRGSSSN
Assay: microscale thermophoresis on DDM-solubilized membranes from yeast expressing human Ptch1 (His-tag labelled)
Type: binding

Structure (SMILES): CSc1ccc2c(c1)C(N1CCN(C)CC1)Cc1ccccc1S2 (stereo not shown) [P375, methiothepin]
- Kd: ~7 µM
